{
  "source": "patent US20160136229A1",
  "about": "“MATERIALS FOR POSITIVE CATHEPSIN B MODULATION AND METHODS OF USE FOR TREATING MILD COGNITIVE IMPAIRMENT (MCI), EARLY DEMENTIA, A-SYNUCLEINOPATHY, TRAUMATIC BRAIN INJURY, CARDIOMYOPATHY, EYE DISEASE AND SKIN DAMAGE” (University of North Carolina at Pembroke, priority 2013, published 2016)",
  "key": {"[1]": {"system": "active cathepsin B", "experiment": "Active cathepsin B in rat organotypic heart slice cultures (Aβ-induced cardiomyopathy model)", "format": "cell-based", "conditions": "2 days of treatment, P=0.027 vs vehicle", "experimental": "FIG. 9. The active form of cathepsin B is reduced in the slice model of Δβ-induced cardiomyopathy. Organotypic heart slice cultures from rats were treated with the control vehicle solution or with Δβ42, the peptide that accumulates in Alzheimer's disease brains as well as in heart tissue during some forms of cardiomyopathy.\nTo test for changes in cathepsin B during protein accumulation induced myopathy, heart slice cultures from rat were prepared and treated with […], the peptide that accumulates in Alzheimer's disease brains as well as in heart tissue during some forms of cardiomyopathy (Bateman et al., 2012; Sanbe et al., 2004, 2005)."}, "[2]": {"system": "transgenic mouse model of Alzheimer's disease", "conditions": "cited from earlier work"}, "[3]": {"system": "Fischer rats", "conditions": "cited from earlier work"}},
  "data": [
    {"molecule": "Aβ42: the peptide that accumulates in Alzheimer's disease brains as well as in heart tissue during some forms of cardiomyopathy", "values": [
      {"measurement": "active cathepsin B in heart slices", "setting": "[1]", "result": "significant decrease"}
    ]},
    {"molecule": "CC12CC3CC(C)(C1)CC(N)(C3)C2", "note": "[memantine]", "values": [
      {"measurement": "spatial learning", "setting": "[2]", "result": "improve spatial learning"},
      {"measurement": "spatial memory", "setting": "[3]", "result": "failed to significantly improve"}
    ]}
  ]
}
